Data published in article PMC6465285, “Arsinothricin, an arsenic-containing non-proteinogenic amino acid analog of glutamate, is a broad-spectrum antibiotic” (Communications Biology, 2019).

Legend:
[1] = molecular target: T1, PpArsN1 (ArsN1 N-acetyltransferase) (Pseudomonas putida, UniProt Q88LK7)
T1 construct: gene PP_1924

[2] = molecular target: T2, SvPAT (phosphinothricin N-acetyltransferase) (Streptomyces viridochromogenes, UniProt Q57146); assay: DTNB acetyltransferase assay, Km; details: read-out: Specific activity (nmol s^-1 mg^-1 PpArsN1) / Km
T2 construct: gene pat

[3] = molecular target: T1, PpArsN1 (ArsN1 N-acetyltransferase); remark: listed apart in the source
glutamine synthetase [4] = molecular target: T3, glutamine synthetase (Escherichia coli, UniProt P0A9C5); assay: coupled ADP/NADH oxidation assay with purified enzyme; format: biochemical
T3 construct: gene glnA

glutamine synthetase [5] = molecular target: T3, glutamine synthetase; assay: coupled ADP/NADH oxidation assay, Km; format: biochemical
[6] = molecular target: PpArsN1, arsinothricin N-acetyltransferase ArsN1 of Pseudomonas putida KT2440 (Pseudomonas putida KT2440); assay: SEC; size-exclusion chromatography of purified PpArsN1 in solution (Supplementary Figure 2); conditions not given
[7] = tested on: CP(=O)(O)CC[C@H](N)C(=O)O; assay: purified protein; details: acetyl coenzyme A

T3 sequence (P0A9C5 2-469): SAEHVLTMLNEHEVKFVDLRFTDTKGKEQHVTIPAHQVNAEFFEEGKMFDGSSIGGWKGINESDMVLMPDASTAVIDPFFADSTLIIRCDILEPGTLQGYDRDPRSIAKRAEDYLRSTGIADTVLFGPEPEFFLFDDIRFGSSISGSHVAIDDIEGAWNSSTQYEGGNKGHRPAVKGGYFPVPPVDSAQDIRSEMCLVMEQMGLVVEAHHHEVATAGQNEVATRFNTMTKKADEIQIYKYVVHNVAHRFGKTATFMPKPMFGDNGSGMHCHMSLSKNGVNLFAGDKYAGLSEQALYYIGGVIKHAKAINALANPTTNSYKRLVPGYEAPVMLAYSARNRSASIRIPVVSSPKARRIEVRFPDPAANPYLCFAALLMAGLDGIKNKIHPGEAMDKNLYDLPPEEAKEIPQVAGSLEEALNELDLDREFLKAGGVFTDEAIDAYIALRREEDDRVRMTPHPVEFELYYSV
T2 sequence (Q57146 whole entry, looked up): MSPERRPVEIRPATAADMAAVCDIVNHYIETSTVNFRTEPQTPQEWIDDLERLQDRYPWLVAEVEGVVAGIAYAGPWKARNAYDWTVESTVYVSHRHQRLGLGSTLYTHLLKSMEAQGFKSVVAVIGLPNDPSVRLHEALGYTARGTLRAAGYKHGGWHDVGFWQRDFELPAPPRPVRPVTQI

C[As](=O)(O)CC[C@H](N)C(=O)O [AST, 2-amino-4-(hydroxymethylarsinoyl)butanoate] was tested, and the Km [1] was 11 ± 3 µM and the Km [2] was 12 ± 2 µM.
In the case of CS(=N)(=O)CC[C@H](N)C(=O)O (stereo partly drawn) [L-MSO, L-methionine sulfoximine], the “Specific activity (nmol s^-1 mg^-1 PpArsN1) / Substrate” value [3] is reported as 2.1 ± 0.1 nmol/s/mg.
CP(=O)(O)CC[C@H](N)C(=O)O [L-PPT, 2-amino-4-(hydroxymethylphosphinyl)butanoate] gave a Ki (glutamine synthetase [4]) of 0.4 ± 0.15 µM.
Compound N[C@@H](CCC(=O)O)C(=O)O [L-glutamate] has a Km (glutamine synthetase [5]) of 2700 ± 600 µM.
“PpArsN1, arsinothricin N-acetyltransferase ArsN1 of Pseudomonas putida KT2440 (enzyme)” was tested, and the stoichiometry N [6] was 2.
Compound “SvPAT (phosphinothricin N-acetyltransferase) (Streptomyces viridochromogenes DSM 40736)” has a Km [7] of 47 ± 2 µM, a kcat [7] of 3.1 s⁻¹ and a kcat/Km [7] of 66000 M⁻¹ s⁻¹.
